Results on three compounds are retold here after BindingDB's records for doi:10.1021/jm00087a004 (Harvard Medical School, 1992).

Where only a bound is given, the exact number is not on record here.

For orientation: Ki means a dissociation constant, usually derived from enzyme kinetics or from competition with a known ligand. A high value points to lower affinity.

Assay [1] is described as follows: Binding affinity towards Opioid receptor delta 1.
Assay [2] in a line: Binding affinity towards Opioid receptor delta 1. This is another data set of the same source.

`CN1CCC2(c3cccc(O)c3)CCCC1C2` (stereo not drawn) came in with a Ki in assay [1] of more than 500 nM.

With `CN1CCC2(c3cccc(O)c3)CCCC1[C@H]2O` (stereo partly drawn), the Ki in assay [2] was 420 nM.

For `CN1CCC2(c3cccc(O)c3)CCCC1[C@@H]2O` (stereo partly drawn), in assay [2], the inhibition constant (Ki) is more than 500 nM.
